Measured values published in ChEMBL document CHEMBL3526135, “Induction of xenobiotic receptors, transporters, and drug metabolizing enzymes by oxycodone” (Drug Metab Dispos, 2013).

What was measured:
[1] = target: T1, Nuclear receptor subfamily 1 group I member 2 (Rattus norvegicus, UniProt Q9R1A7); assay: Transactivation of rat PXR at 0.1 to 30 uM after 24 to 48 hrs by cell-based luciferase reporter gene assay; format: ADME
T1 sequence (Q9R1A7 whole entry): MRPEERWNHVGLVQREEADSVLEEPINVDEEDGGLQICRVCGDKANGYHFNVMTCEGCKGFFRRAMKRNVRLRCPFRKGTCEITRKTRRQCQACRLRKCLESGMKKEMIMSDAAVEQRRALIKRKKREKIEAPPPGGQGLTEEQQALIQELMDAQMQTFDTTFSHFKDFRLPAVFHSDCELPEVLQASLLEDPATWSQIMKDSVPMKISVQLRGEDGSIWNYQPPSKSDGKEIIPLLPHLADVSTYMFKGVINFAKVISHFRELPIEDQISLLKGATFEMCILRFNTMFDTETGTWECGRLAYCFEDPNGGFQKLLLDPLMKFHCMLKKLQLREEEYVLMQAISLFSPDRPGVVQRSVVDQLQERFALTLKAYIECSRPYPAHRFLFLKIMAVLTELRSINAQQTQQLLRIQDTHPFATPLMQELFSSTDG

[2] = target: T2, Aryl hydrocarbon receptor (Homo sapiens, UniProt P35869); assay: Transactivation of human AhR at 0.1 to 30 uM after 24 to 48 hrs by cell-based luciferase reporter gene assay
T2 sequence (P35869 whole entry): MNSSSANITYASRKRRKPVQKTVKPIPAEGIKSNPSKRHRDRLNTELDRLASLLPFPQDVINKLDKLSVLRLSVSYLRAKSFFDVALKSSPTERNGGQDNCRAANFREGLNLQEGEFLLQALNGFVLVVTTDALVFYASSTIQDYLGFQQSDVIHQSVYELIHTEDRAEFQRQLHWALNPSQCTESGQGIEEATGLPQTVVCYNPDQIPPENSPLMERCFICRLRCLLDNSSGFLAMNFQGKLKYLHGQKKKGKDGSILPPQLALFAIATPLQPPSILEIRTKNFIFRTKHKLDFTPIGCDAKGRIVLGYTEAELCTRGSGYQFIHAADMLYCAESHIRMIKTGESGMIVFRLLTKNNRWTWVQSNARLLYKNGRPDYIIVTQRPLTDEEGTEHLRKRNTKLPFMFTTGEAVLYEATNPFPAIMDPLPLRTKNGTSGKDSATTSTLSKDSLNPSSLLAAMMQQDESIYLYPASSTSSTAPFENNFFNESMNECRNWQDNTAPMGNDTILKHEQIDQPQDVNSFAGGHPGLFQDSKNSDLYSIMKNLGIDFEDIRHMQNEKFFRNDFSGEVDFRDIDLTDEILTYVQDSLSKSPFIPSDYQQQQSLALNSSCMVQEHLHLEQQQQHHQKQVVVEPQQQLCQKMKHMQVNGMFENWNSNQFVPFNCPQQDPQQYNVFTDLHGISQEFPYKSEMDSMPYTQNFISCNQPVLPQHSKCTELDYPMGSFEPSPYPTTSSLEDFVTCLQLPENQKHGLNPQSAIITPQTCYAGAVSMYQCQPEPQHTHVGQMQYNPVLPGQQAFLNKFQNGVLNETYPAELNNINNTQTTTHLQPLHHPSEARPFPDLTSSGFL

[3] = target: T3, Nuclear receptor subfamily 1 group I member 3 (Homo sapiens, UniProt Q14994); assay: Transactivation of human CAR1 transfected in human HepG2 cells assessed as CYP2B6 expression at 1 to 30 uM after 24 hrs by luciferase reporter gene assay; format: ADME, cell-based; settings: hepg2, 24 h
T3 sequence (Q14994 whole entry): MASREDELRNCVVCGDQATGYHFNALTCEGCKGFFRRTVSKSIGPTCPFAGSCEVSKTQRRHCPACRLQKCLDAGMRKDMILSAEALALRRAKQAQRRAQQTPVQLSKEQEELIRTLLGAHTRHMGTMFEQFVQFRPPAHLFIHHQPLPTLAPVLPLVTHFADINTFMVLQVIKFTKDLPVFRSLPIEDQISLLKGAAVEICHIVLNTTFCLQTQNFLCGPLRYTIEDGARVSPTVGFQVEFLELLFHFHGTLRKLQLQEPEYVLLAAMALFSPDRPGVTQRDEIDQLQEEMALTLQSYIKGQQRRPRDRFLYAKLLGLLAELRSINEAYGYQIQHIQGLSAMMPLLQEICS

[4] = target: T4, Nuclear receptor subfamily 1 group I member 3 (Mus musculus, UniProt O35627); assay: Transactivation of mouse CAR1 transfected in human HepG2 cells assessed as CYP2B6 expression at 1 to 30 uM after 24 hrs by luciferase reporter gene assay; format: ADME, cell-based; settings: hepg2, 24 h
T4 sequence (O35627 whole entry): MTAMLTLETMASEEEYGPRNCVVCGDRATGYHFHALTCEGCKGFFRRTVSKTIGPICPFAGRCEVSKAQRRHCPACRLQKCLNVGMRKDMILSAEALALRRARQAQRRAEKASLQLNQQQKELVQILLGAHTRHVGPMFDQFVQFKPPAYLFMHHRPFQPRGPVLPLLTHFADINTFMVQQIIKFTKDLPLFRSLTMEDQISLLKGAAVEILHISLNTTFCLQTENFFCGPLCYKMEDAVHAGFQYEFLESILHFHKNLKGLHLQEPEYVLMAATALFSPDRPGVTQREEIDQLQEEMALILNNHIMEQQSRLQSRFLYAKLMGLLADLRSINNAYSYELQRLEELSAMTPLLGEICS

[5] = Transactivation of human CAR1 Ala retention mutant transfected in human HepG2 cells assessed as CYP2B6 expression at 1 to 30 uM after 24 hrs by luciferase reporter gene assay; format: ADME, cell-based; settings: hepg2, 24 h
[6] = target: T3, Nuclear receptor subfamily 1 group I member 3; assay: Transactivation of human CAR1 transfected in human primary hepatocytes assessed as nuclear translocation at 30 uM by confocal laser scanning microscopy; format: cell-based, Hepatocyte
[7] = target: T3, Nuclear receptor subfamily 1 group I member 3; assay: Transactivation of human CAR1 transfected in human primary hepatocytes assessed as nuclear translocation at 1 mM by confocal laser scanning microscopy; format: cell-based, Hepatocyte; settings: 1000 µM

SMILES | Activity [1] | Activity [2] | Activity [3] | Activity [4] | Activity [5] | Activity [6] | Activity [7]
COc1ccc2c3c1O[C@H]1C(=O)CC[C@@]4(O)[C@@H](C2)NCC[C@]314 | Not Active | Not Active | Active | Not Active | Not Active | – | –
COc1ccc2c3c1O[C@H]1C(=O)CC[C@@]4(O)[C@@H](C2)N(C)CC[C@]314 [OXYCODONE] | Not Active | Not Active | Active | Not Active | Not Active | Not Active | –
CN1CC[C@]23c4c5ccc(O)c4O[C@H]2C(=O)CC[C@@]3(O)[C@H]1C5 [OXYMORPHONE] | Not Active | Not Active | Active | Not Active | Not Active | – | –
CCC1(c2ccccc2)C(=O)NC(=O)NC1=O [PHENOBARBITAL] | – | – | – | – | – | – | Active
